{"source": "patent US10138468B2", "about": "“Method for differentiation of pluripotent stem cells into multi-competent renal precursors” (Hoffmann-La Roche Inc., priority 2013, dated 2018)", "key": {"[1]": {"test_system": "hPSCs-derived Podocytes cells", "test": "Pro-inflammatory cytokine response assay (Bio-Plex Pro Cytokine, Chemokine and Growth factor assay)", "assay_type": "cell-based, human", "settings": "TNFα 1 ng/ml and 5 ng/ml, 24 h, DMEMF12 medium", "experimental": "FIG. 8a: Pro-inflammatory cytokine response assay. hPSCs-derived Podocytes cells at Day 13 upregulate the expression of pro-inflammatory markers such as IL-8 upon stimulation with TNFα (1 ng/ml and 5 ng/ml) after 24 h in DMEMF12 medium Main panel: Quantification graph: concentration in the harvested supernatant (pg/ml) of the mentioned cytokines. Bio-Plex Pro Cytokine, Chemokine and Growth factor assay was used to measure the activation of hPSCs-derived Podocytes cells in response to TNFα.\nIn response to proinflammatory stimuli Podocytes express specific cytokines including IL-8, Rantes, MIP-1b and MCP1. Bio-Plex Pro™ Cytokine, Chemokine and Growth factor assay (Biorad, M50-0KCAF0Y). After overnight serum starvation hiPS derived podocytes were exposed at two different concentrations of TNFα (1 and 5 ng/ml) for 24 hours. After treatment the supernatants were collected and used to quantify the Cytokine, Chemokine and Growth factor release using Bio-Plex Pro™ Cytokine, Chemokine and Growth factor assay kit (Biorad, M50-0KCAF0Y). The assay was performed following the manufacturer's instruction. To determine whether the differentiation system generates bona fide Podocytes, we challenged the iPS-derived Podocytes with proinflammatory TNFα and analyzed for cytokine and chemokine release."}, "[2]": {"test_system": "hPSCs-derived Podocytes cells", "test": "Functional response to stressor stimulation: ZO-1 localization by immunocytochemistry and image based high content analysis", "assay_type": "cell-based, human", "settings": "podocytes at Day 13, already at Day 1, sustained at D2 and D5, DMEMF12 medium", "experimental": "(§1) FIG. 6: Characterization of monolayer differentiated hPSCs-derived Podocytes cells at Day 13. hiPSCs have been differentiated in monolayer conditions and at Day 13 have been tested for functional response to TGF beta (10 ng/ml) stressor stimulation. The expression of the tight junction marker ZO-1 has been tested by immunocytochemistry analysis and its cellular localization by image based high content analysis (HCA).\nas §1, with “7:” for “6:”, “Angiotensin II (AngII) (100 nM)” for “TGF beta (10 ng/ml)”\nThe cells were fixed with PBS containing 4% paraformaldehyde for 20 min at room temperature. After three washing with PBS the cells the cells were then blocked with 5% BSA solution (Blocking buffer) for 60 min. When probing for an intracellular antigen, 0.5% Triton-X was included in the blocking buffer. […] Fluorescence was acquired and analyzed by the Operetta® High Content Imaging System (PerkinElmer) followed by computer-based image analysis (ImageJ, Java-based image processing program). […]"}}, "note": "Entries after “also recorded” stand apart in the source; their conditions may differ.", "data": [{"substance": "TNFα", "values": [{"measurement": "IL-8 concentration in the harvested supernatant", "setting": "[1]", "result": "increase of the supernatant concentration; also recorded: significantly upregulated"}, {"measurement": "MCP1 concentration in the harvested supernatant", "setting": "[1]", "result": "increase of the supernatant concentration; also recorded: significantly upregulated"}, {"measurement": "MIP1b concentration in the harvested supernatant", "setting": "[1]", "result": "increase of the supernatant concentration; also recorded: significantly upregulated"}, {"measurement": "RANTES concentration in the harvested supernatant", "setting": "[1]", "result": "increase of the supernatant concentration; also recorded: significantly upregulated"}]}, {"substance": "Angiotensin II [AngII, stressor stimulation (100 nM) of podocytes]", "values": [{"measurement": "ZO-1 cellular localization (perinuclear translocation of ZO-1 expression)", "setting": "[2]; AngII 100 nM", "result": "remodeling and translocation of the ZO-1 expression form the membrane to the perinuclear zone"}]}, {"substance": "TGF beta: stressor stimulation (10 ng/ml) of podocytes", "values": [{"measurement": "ZO-1 cellular localization (perinuclear translocation of ZO-1 expression)", "setting": "[2]; TGF beta 10 ng/ml", "result": "remodeling and translocation of the ZO-1 expression form the membrane to the perinuclear zone"}]}]}
